The values below come from patent US11155580B2, “Modified proteins and methods of use thereof” (YALE UNIVERSITY, priority 2013, dated 2021).

Where no end group is shown, it is not given here. rhodamine = not defined here; Rhod = not defined here

Series [1] relates to HeLa cells transfected with GR-GFP. Description: GR-GFP translocation assay (cytosolic access of Dex-labeled molecules). It counts as cell-based. The note with it: for translocation ratio (TR): HeLa cells expressing GR-GFP. As for the experimental part:
HeLa cells transfected with pK7-GR-GFP were plated in Matrical plates as described above. To label nuclei, the media was replaced with HKR buffer containing 300 nM Hoescht and the cells incubated for 30 min at 37° C.
Cells were then analyzed as described above.
HeLa cells transfected with pK7-GR-GFP for 24-36 hr were plated (10^4/well in 200 μL) the day prior to experiments in 96 well glass bottom plates (Matrical). The media was replaced with HKR buffer containing 300 nM Hoescht and the cells incubated for 30 min at 37° C. […] The cells were incubated for a further 30 min at 37° C. before epifluorescence imaging using a Zeiss Axiovert 200M microscope fitted with a mRM digital camera, a 63×1.3NA PlanApo objective and an EXFO-Excite illumination source.
Uptake was allowed to proceed for an additional 30 min at 37° C. before analysis by epifluorescence images as described elsewhere herein.
The image analysis algorithm used by CellProfiler is customizable and contained within a ‘Pipeline’ that describes a series of image manipulation and evaluation steps, such as reading the image, adjusting the intensity, and identifying objects. Each step has several options. […] Using the image of Hoescht fluorescence and Otsu's method of automatic thresholding, nuclei were identified and segmented using 3 class thresholding. The middle class was assigned to background. Closely approximated objects were separated using ‘Laplacian of Gaussian’ modeling, and touching nuclei were divided using the ‘shape’ option. Nuclear regions were expanded by 2 μm to generate an enlarged region. The nuclear region was subtracted from enlarged region to generate a ring surrounding the nucleus (surround). […] The ratio of the median intensities of the nuclear and surrounding region of the GFP or mCherry (as appropriate) image were collected for every cell examined. Those cells falling below a threshold of intensity (10% of the maximum intensity of the image) were discarded as ‘untransfected’. Typically, 20-60 transfected cells from 15-30 images were examined for each experimental condition.

In series [2] the test system is HeLa cells transfected with pGR-mCherry and Rab5-GFP or Rab5Q79L-GFP. Briefly: GR-mCherry translocation in cells expressing Rab5-GFP or Rab5Q79L-GFP. The following applies: 1 μM, 30 min. Type of series: cell-based. As to the method:
Cotransfected cells expressing Rab-GFP fusions and pGR-mCherry were identified via their characteristic pattern of green and red fluorescence. The translocation ratio was determined using median values of mCherry fluorescence within the nucleus and surrounding region using CellProfiler.
HeLa cells transfected for 24-36 hr with pGR-mCherry and either Rab5-GFP or Rab5Q79L-GFP were plated (10^4/well in […]) the day prior to experiments in 96 well glass bottom plates (Matrical). The cells were washed with HKR buffer and the nuclei labeled using Hoescht as above. […] The cells were incubated for a further 30 min at 37° C. before imaging. Cells that had been cotransfected with EGFP fusions were identified via their characteristic pattern of green and red fluorescence. To evaluate the extent of GR activation, epifluorescence images were obtained as described above, except the fluorescence of pGR-mCherry was also visualized using Zeiss Filter Set #43 (ex BP 545/25 nm, FT 570, em BP 605/70 nm).
The image analysis algorithm used by CellProfiler is customizable and contained within a ‘Pipeline’ that describes a series of image manipulation and evaluation steps, such as reading the image, adjusting the intensity, and identifying objects. Each step has several options. […] Using the image of Hoescht fluorescence and Otsu's method of automatic thresholding, nuclei were identified and segmented using 3 class thresholding. The middle class was assigned to background. Closely approximated objects were separated using ‘Laplacian of Gaussian’ modeling, and touching nuclei were divided using the ‘shape’ option. Nuclear regions were expanded by 2 μm to generate an enlarged region. The nuclear region was subtracted from enlarged region to generate a ring surrounding the nucleus (surround). The diameter of the surrounding region was chosen to be 2 μm larger than the nucleus, within the range (1-3 μm) used by previously reported high content screens (Ding et al., 1998, J Biol Chem. 273:28897-28905; Peeraniet al., 2007, EMBO J. 26:4744-4755). The ratio of the median intensities of the nuclear and surrounding region of the GFP or mCherry (as appropriate) image were collected for every cell examined. Those cells falling below a threshold of intensity (10% of the maximum intensity of the image) were discarded as ‘untransfected’. Typically, 20-60 transfected cells from 15-30 images were examined for each experimental condition.

The next series can be described thus: Figure 15. From the text: Table printed on a drawing sheet, Figure 15
The amino acid sequence of Arg8 is provided in SEQ ID NO:68.
First reader's note: Cytosolic concentration and percent in cytosol are taken as measures of cell permeability or uptake; the supplied text has no description of Figure 15.

The next series concerns U2OS(GIGI) cells. Description: GIGI in lysates, stably transfected U2OS(GIGI) cells. Type of series: cell-based. The note with it: Dex-labeled peptides, 24 h, lysates, read-out: EC50 (eGFP expression, GIGI). The source says: RFUs are expressed±standard deviation (Excel). The maximum induction level is defined as RFUmax. Data were processed using Kaleidagraph and GraphPad Prism software. RFU=([I530]/[I580])−([I′530]/[I′580]) (1)
Y=Ymin+(Ymax−Ymin)/(1+10^logEC50-X) (2)

The next series relates to HeLa cells. Briefly: Colocalization with Alexa-488-transferrin (Tf488), live cell confocal microscopy. It counts as cell-based. The note with it: 1 μM, 30 min. As for the experimental part:
To examine the colocalization of rhodamine labeled miniature proteins or peptides with Alexa-488-transferrin (Tf488), HeLa cells were plated (200 μl, 10^4 cells/well, 96 well glass bottom plates, Matrical) the day prior to experiments. The media was replaced with 150 μL Hepes-Krebs-Ringer's (HKR) buffer (140 mM NaCl, 2 mM KCl, 1 mM CaCl2, 1 mM MgCl2, 10 mM Hepes pH 7.4) containing 1 μM miniature protein or 25 nM Alexa-488-transferrin (Molecular Probes) and the cells incubated at 37° C. for 30 min. The cells were then rinsed twice with 200 μL, HKR buffer and nuclei were labeled by overlaying 200 μL HKR containing 300 nM Hoechst 33342 (Molecular Probes Cat. # H3570) for 5 minutes. Images of cells were acquired using a PerkinElmer LiveView spinning disk confocal microscope fitted with a 60×1.2 NA objective. Colocalization with Rab-GFP fusions was examined in an analogous way using HeLa cells transfected with the appropriate expression plasmid.
Colocalization between rhodamine and fluorescein labeled miniature proteins and peptides, or between rhodamine labeled miniature proteins and markers of endocytosis was completed using confocal microscopy. Live cell confocal microscopy was conducted using a PerkinElmer LiveView spinning disk confocal microscope fitted with heated microscope enclosure (maintained at 37° C.), a 60×1.2 NA objective, laser illumination, a Nipkow CSU-1× spinning disk, and a Hammamatsu CS9100 EMCCD camera operated using Velocity software. Alexafluor-488-transferrin was detected using a 488 nm laser and a 520 nm long pass filter; tetraethylrhodamine and Alexafluor-546-transferrin were detected using a 546 nm laser line and a 580 nm long pass filter, Hoescht 33342 was detected using a 405 nm laser line and a 450 nm long pass filter. Images were processed for presentation by using the ‘subtract background’ option and linear contrast adjustments in Image J. All adjustments were applied uniformly to the entire image. Colocalization analysis was performed using the JACOP plugin (Bolte and Cordelières, 2006), available on the ImageJ website. The fraction of rhodamine signal overlapping with EGFP signal (R E G) was calculated using Mander's coefficient and automatic thresholding. Pearson's correlation coefficient (R) was also obtained using the JACOP plugin.

Another series has as its target cathepsin B (Homo sapiens, UniProt P07858). Briefly: Resistance to acid proteases: cathepsin B. Type of series: in vitro ADME. The following applies: 50 pmol, 30 min, 37° C., pH 5. As to the method: 50 pmol aPPR, 5.2R, 5.3R, ZF5.3R, TatR (SEQ ID NO:67), or Arg8R (SEQ ID NO:68) were incubated with 5 pg cathepsin B, D, or L for 30 min at 37° C. in 10 μL of 20 mM sodium phosphate buffer (pH 5) containing 150 mM NaCl. At the end of the incubation, the reaction was stopped by adding 40 μL of a solution containing a 84:15:1 ratio of water:EtOH:TFA before analysis by HPLC.

As to `C[C@@H]1C[C@H]2[C@@H]3CCC4=CC(=O)C=C[C@]4(C)[C@@]3(F)[C@@H](O)C[C@]2(C)[C@@]1(O)C(=O)CO` [Dex, dexamethasone], the “reduction of the increase in TR by MβCD” value in series [1] (5 mM MβCD, 1 μM) amounted to 53%. Besides, the “TR (GR-mCherry), Rab5Q79L-GFP expressing cells” value in series [2] (Rab5Q79L-GFP) turned out to be 2.45±0.21. For the same compound, in series [2] (wild-type Rab5-GFP), the “TR (GR-mCherry), Rab5-GFP expressing cells” value is recorded as 2.24±0.15.
In the case of GRKKRRQRRRPPQY [Tat], in “Figure 15”, the “% in cytosol” value is recorded as 0.93% and the “[molecule] in cytosol” value came to 4.63 nM.
For “K^DexGPSQPTYPGDDAPVEDLIRFYNDLQQYLNVVTRHRY-NH2 (K(dexamethasone)GPSQPTYPGDDAPVEDLIRFYNDLQQYLNVVTRHRY-NH2) [aPPDex]”, the “effect of bafilomycin on TR” value in series [1] (200 nM bafilomycin pretreatment 1 h, then 1 μM) is listed as “did not alter the effect”. Moreover, in series [1] (1 μM, 30 min), the “translocation ratio (TR)” value is 1.41±0.09. Also, the “effect of EIPA on TR” value in series [1] (50 μM EIPA pretreatment 30 min, then 1 μM, 30 min) is “None of the endocytosis inhibitors altered the TR”. The “effect of dynasore on TR” value in series [1] (80 μM dynasore pretreatment 30 min, then 1 μM, 30 min) was “None of the endocytosis inhibitors altered the TR”. In addition, in series [1] (5 mM MβCD pretreatment 30 min, then 1 μM, 30 min), the “effect of methyl-β-cyclodextrin (MβCD) on TR” value is “None of the endocytosis inhibitors altered the TR”. Further, the “TR (GR-mCherry), cells expressing Rab5Q79L-GFP or Rab5-GFP” value in series [2] stood at 1.25±0.04. Further, in the series on U2OS(GIGI) cells, the EC50 was 438 nM.
In the case of “K^DexWYSCNVCGKAFVLSAHLNQHLAVHTQAT-NH2 (K(dexamethasone)WYSCNVCGKAFVLSAHLNQHLAVHTQAT-NH2; cysteine pairing not given here) [ZFDex]”, the “translocation ratio (TR)” value in series [1] (1 μM, 30 min) was determined as 1.4±0.05. The EC50 in the series with U2OS(GIGI) cells turned out to be 103 nM.
On to “K^RhodGPSQPTYPGDDAPVEDLIRFYRDLRRYLNVVTRHRY-NH2 (K(rhodamine)GPSQPTYPGDDAPVEDLIRFYRDLRRYLNVVTRHRY-NH2; reading uncertain; also: printed as K^RhodGPSQPTYPGDDAPVEDLIRFYRDLRRYLNVVTRHRY-NH2) [4.3R]”, for which, in the series on HeLa cells, the “intracellular red fluorescent signal” value is “red fluorescent puncta throughout the cytosol”.
The same measure, in the same setting: the entry for “K^RhodGPSQPTYPGDDAPVRDLIRFYRDLQRYLNVVTRHRY-NH2 (K(rhodamine)GPSQPTYPGDDAPVRDLIRFYRDLQRYLNVVTRHRY-NH2; reading uncertain; also: printed as K^RhodGPSQPTYPGDDAPVRDLIRFYRDLQRYLNVVTRHRY-NH2) [4.2R]” is “red fluorescent puncta throughout the cytosol”.
On to “K^RhodGPSQPTYPGDDAPVRDLIRFYRDLQRYLRVVTRHRY-NH2 (K(Rhod)GPSQPTYPGDDAPVRDLIRFYRDLQRYLRVVTRHRY-NH2; reading uncertain; also: printed as KRhodGPSQPTYPGDDAPVRDLIRFYRDLQRYLRVVTRHRY-NH2) [5.2R]”, for which the “intracellular red fluorescent signal” value with HeLa cells is given as “red fluorescent puncta throughout the cytosol”. In the series with cathepsin B, the “degradation by cathepsin B (HPLC)” value is reported as “several additional small peaks”.
As to RRRRRRRR [Arg8], in the series “Figure 15”, the “% in cytosol” value worked out at 2.8% and the “[molecule] in cytosol” value was 14.0 nM.
On the same counts, the results for WYSCNVCGKAFVLSRHLNRHLRVHRRAT [ZF5.3] are 59% and 249 nM.

A word on the EC50: it is the midpoint of the concentration-response curve.
